{
  "source": "patent US8785630B2",
  "about": "“Insecticidal triazines and pyrimidines” (Vestaron Corporation, priority 2011, dated 2014)",
  "data": [
    {"tested_on": "beet armyworm (Spodoptera exigua)", "test": "Insecticidal test for beet armyworm, treated diet surface", "assay_type": "in vivo", "details": "100 μg/cm^2 on diet surface, first instar larvae, 32 insects per treatment, observations 24, 48 and 96 hours", "method": "The compounds identified in Table 8 were prepared according to the previous methods and were tested against beet armyworm and corn earworm as follows:\nInsecticidal Test for Beet Armyworm (Spodoptera exigua).\nTo prepare the test solution, the test compound was Formulated at 3499 ppm in solution as 5 mg compound/1.429 mL of 9 parts acetone: 1 part deionized H2O and vortexed to homogenize. 50 μL of the 3499 ppm (equivalent to 100 μg/cm^2 dose on diet surface area) test solution was pipetted upon the surface of 1 mL of solidified cool Southland Products Incorporated Beet Armyworm Diet (201 Stuart Island Road Lake Village, Ark. 71653) using an Eppendorf Repeater Plus with a 1 mL pipette tip. All pipetting of treatments was done in a Labconco Hood. Thirty minutes were allowed for the acetone to evaporate leaving a dose of 100 μg/cm^2 on the surface of the artificial diet. Two 24 hour old first instar Beet Armyworm (Spodoptera Exigua) larvae were placed in each well of the 128 well Bio-BA 128 Bioassay trays (CD International, Pitman, N.J., 08071, USA) using a #0 fine camel hair paint brush. Bioassay trays were sectioned into treatment groups of 8 with 16 replicates per treatment group (32 insects per treatment). Trays containing the treated diet and larvae were covered with a Bio-CV-16 cover (CD International, Pitman, N.J., 08071, USA) and then placed on a rack under florescent lights at 27° C., 20% relative humidity (RH) in the room, and 16 hr light: 8 hr dark for 96 hours. Observations were made 24, 48 and 96 hours after treatment and infestation. The number of insects dead were counted out of the 32 insects total per treatment and the results are given in a table as a percent mortality at a dose of 100 μg/cm^2. When finished, the tray was moved to the −5° C. freezer and left for 24 hr to insure mortality of the remaining S. exigua. After 24 hours, dispose of entire tray into waste bin.\nKeys to the table: Mortality refers to activity against beet army worm (Spodoptera exigua) as defined above at the concentration of 100 μg/cm^2 (A=76-100% mortality, B=51-75% mortality, C=26-50% mortality and D=0-25% mortality).", "units": {"mortality at 100 µg/cm2": "%"}, "values": [
      {"smiles": "Fc1cccc(Cl)c1-c1cc(Nc2ccc(Cl)cc2)nc(NN=Cc2ccc(OC(F)(F)F)cc2)n1", "note": "[Example 52, 6-(2-chloro-6-fluorophenyl)-N-(4-chlorophenyl)-2-(2-(4-(trifluoromethoxy)benzylidene)hydrazinyl)pyrimidin-4-amine]", "mortality at 100 µg/cm2": "76 to 100"},
      {"smiles": "Cc1ccc(C=NNc2nc(Nc3ccc(Cl)nc3)nc(-c3c(F)cccc3Cl)n2)cc1", "note": "[Example 53, 4-(2-chloro-6-fluorophenyl)-N-(6-chloropyridin-3-yl)-6-(2-(4-methylbenzylidene)hydrazinyl)-1,3,5-triazin-2-amine]", "mortality at 100 µg/cm2": "76 to 100"},
      {"smiles": "COc1ccc(C=NNc2nc(Nc3ccc(Cl)nc3)nc(-c3c(F)cccc3Cl)n2)cc1", "note": "[Example 54, 4-(2-chloro-6-fluorophenyl)-N-(6-chloropyridin-3-yl)-6-(2-(4-methoxybenzylidene)hydrazinyl)-1,3,5-triazin-2-amine]", "mortality at 100 µg/cm2": "76 to 100"},
      {"smiles": "Fc1cc(C=NNc2nc(Nc3ccc(Cl)nc3)nc(-c3c(F)cccc3Cl)n2)ccc1C(F)(F)F", "note": "[Example 55, 4-(2-chloro-6-fluorophenyl)-N-(6-chloropyridin-3-yl)-6-(2-(3-fluoro-4-(trifluoromethyl)benzylidene)hydrazinyl)-1,3,5-triazin-2-amine]", "mortality at 100 µg/cm2": "76 to 100"},
      {"smiles": "FC(F)(F)Oc1ccc(C=NNc2nc(NCc3ccc(Cl)nc3)cc(-c3ccccc3)n2)cc1", "note": "[Example 56, N-((6-chloropyridin-3-yl)methyl)-6-phenyl-2-(2-(4-(trifluoromethoxy)benzylidene)hydrazinyl)pyrimidin-4-amine]", "mortality at 100 µg/cm2": "76 to 100"},
      {"smiles": "FC(F)(F)Oc1ccc(C=NNc2nc(Nc3ccc(Cl)cc3)cc(-c3ccccc3)n2)cc1", "note": "[Example 57, N-(4-chlorophenyl)-6-phenyl-2-(2-(4-(trifluoromethoxy)benzylidene)hydrazinyl)pyrimidin-4-amine]", "mortality at 100 µg/cm2": "76 to 100"},
      {"smiles": "FC(F)(F)Oc1ccc(C=NNc2cc(-c3ccccc3)nc(Nc3ccc(Cl)cc3)n2)cc1", "note": "[Example 58, N-(4-chlorophenyl)-4-phenyl-6-(2-(4-(trifluoromethoxy)benzylidene)hydrazinyl)pyrimidin-2-amine]", "mortality at 100 µg/cm2": "76 to 100"},
      {"smiles": "Fc1cccc(Cl)c1-c1cc(Nc2ccc(Cl)nc2)nc(NN=Cc2ccc(OC(F)(F)F)cc2)n1", "note": "[Example 59, 6-(2-chloro-6-fluorophenyl)-N-(6-chloropyridin-3-yl)-2-(2-(4-(trifluoromethoxy)benzylidene)hydrazinyl)pyrimidin-4-amine]", "mortality at 100 µg/cm2": "76 to 100"},
      {"smiles": "Fc1cccc(Cl)c1-c1nc(NCc2ccc(Cl)cc2)nc(NN=Cc2ccc(OC(F)(F)F)cc2)n1", "note": "[Example 60, 4-(2-chloro-6-fluorophenyl)-N-(4-chlorobenzyl)-6-(2-(4-(trifluoromethoxy)benzylidene)hydrazinyl)-1,3,5-triazin-2-amine]", "mortality at 100 µg/cm2": "76 to 100"},
      {"smiles": "FC(F)(F)Oc1ccc(C=NNc2nc(NCc3ccc(Cl)cc3)cc(-c3ccccc3)n2)cc1", "note": "[Example 61, N-(4-chlorobenzyl)-6-phenyl-2-(2-(4-(trifluoromethoxy)benzylidene)hydrazinyl)pyrimidin-4-amine]", "mortality at 100 µg/cm2": "76 to 100"}
    ]}
  ]
}
